In ChEMBL document CHEMBL1201862, “PubChem BioAssay data set” (2004):
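All cell lines were grown in 96-well plates and treated with compound for 48 hours. Abbreviation: GI50, concentration required for 50% inhibition of growth.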 Active and inactive are the calls of the source. Rule as the data show it: active = GI50 up to about 1.1 µM and inactive = higher.

Experiments:
Assay in all cases: NCI tumour cell line growth inhibition, 48 h
A549 = system: A549
U-251 = system: U-251
DU-145 = system: DU-145
LOX IMVI = system: LOX IMVI
MDA-MB-231 = system: MDA-MB-231
SR = system: SR
MCF7 = system: MCF7
UO-31 = system: UO-31
EKVX = system: EKVX
UACC-257 = system: UACC-257
SK-MEL-5 = system: SK-MEL-5
RXF 393 = system: RXF 393
K562 = system: K562
SNB-19 = system: SNB-19
OVCAR-3 = system: OVCAR-3
T47D = system: T47D
UACC-62 = system: UACC-62
KM12 = system: KM12
SN12C = system: SN12C

Measured: GI50

Cc1ccc(SCC(CF)OCn2cc(F)c(=O)[nH]c2=O)cc1 (stereo not given)
inactive: A549 > 100 µM | U-251 > 100 µM | DU-145 > 100 µM | LOX IMVI > 100 µM | MDA-MB-231 > 100 µM | SR > 100 µM | MCF7 > 100 µM | UO-31 > 100 µM | EKVX > 100 µM | UACC-257 > 100 µM | SK-MEL-5 > 100 µM | RXF 393 > 100 µM | K562 > 100 µM | SNB-19 > 100 µM | OVCAR-3 > 100 µM | T47D > 100 µM

OCC(Cn1cncn1)(c1ccc(F)cc1F)n1cncn1 (stereo not given)
inactive: A549 > 100 µM | U-251 > 100 µM | DU-145 > 100 µM | LOX IMVI > 100 µM | UACC-62 > 100 µM | MDA-MB-231 > 100 µM | SR > 100 µM | MCF7 > 100 µM | UO-31 > 100 µM | KM12 > 100 µM | UACC-257 > 100 µM | SK-MEL-5 > 100 µM | RXF 393 > 100 µM | K562 > 100 µM | SNB-19 > 100 µM | OVCAR-3 > 100 µM | SN12C > 100 µM | T47D > 100 µM

C=C1C(=O)OC2CC(=C)C3CC=C(C)C3CC12 (stereo not given)
inactive: A549 35.5 µM | U-251 15.3 µM | DU-145 > 10 µM | LOX IMVI 11.1 µM | UACC-62 10.4 µM | MDA-MB-231 21.5 µM | SR 18.1 µM | MCF7 20.1 µM | UO-31 15.9 µM | EKVX 64.6 µM | KM12 41.1 µM | UACC-257 14.4 µM | SK-MEL-5 27 µM | K562 11 µM | SNB-19 22.9 µM | OVCAR-3 27.5 µM | SN12C 16.2 µM | T47D 14.3 µM

CN(C)c1ccc(/C=C/c2ccnc3ccccc23)cc1N
inactive: A549 6.81 µM | U-251 9.66 µM | DU-145 10.4 µM | LOX IMVI 7.41 µM | UACC-62 12.1 µM | MDA-MB-231 4.04 µM | SR 2.21 µM | MCF7 1.57 µM | UO-31 7.55 µM | EKVX 4.72 µM | KM12 7.85 µM | UACC-257 2.42 µM | SK-MEL-5 2.82 µM | K562 3.98 µM | SNB-19 14.4 µM | OVCAR-3 2.32 µM | SN12C 14.8 µM
active: T47D 0.547 µM

CN(C)CC1CCC/C(=C\c2ccc(Cl)cc2)C1=O (stereo not given)
active: K562 1 µM
inactive: A549 16.9 µM | U-251 3.71 µM | DU-145 15.5 µM | LOX IMVI 1.63 µM | UACC-62 2.08 µM | MDA-MB-231 3.05 µM | SR 1.33 µM | MCF7 1.24 µM | UO-31 2.25 µM | EKVX 11.2 µM | KM12 1.69 µM | UACC-257 4.91 µM | SK-MEL-5 4 µM | SNB-19 11.8 µM | OVCAR-3 3.21 µM | SN12C 3.33 µM | T47D 3.49 µM

C[C@H](C1CC(C)(O)C(C)(O)C(O)O1)[C@H]1CC[C@H]2[C@@H]3[C@@H]4O[C@@H]4[C@@]4(O)CC=CC(=O)[C@]4(C)[C@H]3CC[C@]12C (stereo not given in full)
inactive: A549 > 50 µM | U-251 > 50 µM | DU-145 > 50 µM | LOX IMVI > 50 µM | UACC-62 > 50 µM | MDA-MB-231 44 µM | MCF7 > 50 µM | UO-31 7.55 µM | EKVX > 50 µM | KM12 > 50 µM | UACC-257 > 50 µM | SK-MEL-5 > 50 µM | RXF 393 22.1 µM | K562 > 50 µM | SNB-19 > 50 µM | OVCAR-3 > 50 µM | SN12C > 50 µM | T47D > 50 µM

CN1CC2=C(N=C(S)NC2c2ccccc2)/C(=C/c2ccccc2)C1 (stereo not given)
inactive: A549 30.3 µM | U-251 54.5 µM | DU-145 > 100 µM | LOX IMVI 29.7 µM | UACC-62 28.5 µM | MDA-MB-231 > 10 µM | SR 30.4 µM | MCF7 40.4 µM | UO-31 60.5 µM | EKVX 75.2 µM | KM12 25.6 µM | UACC-257 91.6 µM | SK-MEL-5 27.7 µM | K562 33 µM | SNB-19 > 100 µM | OVCAR-3 99.8 µM | SN12C 51.8 µM | T47D 44.8 µM

CC(C)(C)c1ccc(NS(=O)(=O)c2ccc(N)cc2)cc1
inactive: A549 27.1 µM | U-251 19.3 µM | DU-145 30.5 µM | LOX IMVI 17.6 µM | UACC-62 15.7 µM | MDA-MB-231 25.8 µM | MCF7 18.4 µM | UO-31 24.9 µM | EKVX 26.9 µM | KM12 36.6 µM | UACC-257 38.4 µM | SK-MEL-5 17.9 µM | RXF 393 29.1 µM | K562 17.8 µM | SNB-19 35.7 µM | OVCAR-3 2.76 µM | SN12C 22.3 µM | T47D 28.3 µM

CCOC(=O)c1nc2ccccc2nc1Nc1ccc(C(=O)OC)s1
inactive: A549 > 100 µM | U-251 > 100 µM | DU-145 > 100 µM | LOX IMVI > 100 µM | UACC-62 > 100 µM | MDA-MB-231 > 100 µM | SR > 100 µM | MCF7 > 100 µM | UO-31 > 100 µM | EKVX > 100 µM | KM12 > 100 µM | UACC-257 > 100 µM | SK-MEL-5 > 100 µM | SNB-19 > 100 µM | OVCAR-3 > 100 µM | SN12C > 100 µM | T47D > 100 µM

O=C1COc2cc(N3CCN(c4cccc(C(F)(F)F)c4)CC3)ccc2N1
inactive: A549 > 100 µM | U-251 > 100 µM | DU-145 > 100 µM | LOX IMVI > 100 µM | UACC-62 > 100 µM | MDA-MB-231 > 100 µM | SR > 100 µM | MCF7 > 100 µM | UO-31 > 100 µM | EKVX > 100 µM | KM12 > 100 µM | UACC-257 > 100 µM | SK-MEL-5 > 100 µM | K562 > 100 µM | SNB-19 > 100 µM | OVCAR-3 > 100 µM | SN12C > 100 µM | T47D > 100 µM

COC(=O)c1ccccc1CC1Cc2c(C)ccc(C)c2C1=O (stereo not given)
inactive: A549 40.2 µM | U-251 33.8 µM | DU-145 50.5 µM | LOX IMVI 16.5 µM | UACC-62 28.7 µM | MDA-MB-231 16 µM | MCF7 11.2 µM | UO-31 25.8 µM | EKVX 13.5 µM | KM12 23.6 µM | UACC-257 16.2 µM | SK-MEL-5 17.8 µM | RXF 393 21.4 µM | K562 33.5 µM | SNB-19 37.9 µM | OVCAR-3 34.4 µM | SN12C 45.3 µM | T47D 21.4 µM

O=C(NC(=S)Nc1ccc([N+](=O)[O-])cc1)c1ccc2c(c1)Sc1ccccc1O2
inactive: A549 > 100 µM | U-251 37 µM | DU-145 > 100 µM | LOX IMVI > 100 µM | UACC-62 71.3 µM | MDA-MB-231 > 100 µM | SR > 100 µM | MCF7 > 100 µM | UO-31 > 100 µM | KM12 > 100 µM | UACC-257 > 100 µM | SK-MEL-5 > 100 µM | K562 > 100 µM | SNB-19 53.3 µM | OVCAR-3 > 100 µM | SN12C > 100 µM | T47D 24.6 µM

CN1C(=O)CN(NC(=O)C2=C(O)c3ccc(Br)cc3S(=O)(=O)N2)C1=S
inactive: A549 > 100 µM | U-251 > 100 µM | DU-145 > 100 µM | LOX IMVI > 100 µM | UACC-62 > 100 µM | MDA-MB-231 > 100 µM | SR 46.1 µM | MCF7 53.7 µM | UO-31 > 100 µM | EKVX > 100 µM | KM12 78.3 µM | UACC-257 > 100 µM | SK-MEL-5 > 100 µM | RXF 393 > 100 µM | K562 49.2 µM | SNB-19 > 100 µM | SN12C > 100 µM | T47D > 100 µM

CC(=O)OC1C[C@@H](C)C2(CC(c3ccoc3)OC2=O)C2CCC(O)C3(CO3)C12CO (stereo not given in full)
inactive: A549 > 100 µM | U-251 > 100 µM | DU-145 > 100 µM | LOX IMVI > 100 µM | UACC-62 > 100 µM | MDA-MB-231 > 100 µM | SR > 100 µM | MCF7 > 100 µM | UO-31 > 100 µM | KM12 > 100 µM | UACC-257 > 100 µM | SK-MEL-5 > 100 µM | RXF 393 > 100 µM | K562 > 100 µM | SNB-19 > 100 µM | OVCAR-3 > 100 µM | SN12C > 100 µM | T47D > 100 µM

COC(=O)c1ccccc1Nc1ccccc1C(=O)OC
inactive: A549 93.1 µM | U-251 83.6 µM | DU-145 > 100 µM | LOX IMVI 56.1 µM | UACC-62 > 100 µM | MDA-MB-231 65.2 µM | MCF7 > 100 µM | EKVX > 100 µM | KM12 > 100 µM | UACC-257 > 100 µM | SK-MEL-5 54.7 µM | RXF 393 68.7 µM | K562 > 100 µM | SNB-19 > 100 µM | OVCAR-3 79.6 µM | SN12C > 100 µM | T47D 44.2 µM
